Where a name gives a salt, the structure may show the parent alone.
Target: T1, SIRT1 (Homo sapiens, UniProt Q96EB6)
T1 sequence (Q96EB6 1-747): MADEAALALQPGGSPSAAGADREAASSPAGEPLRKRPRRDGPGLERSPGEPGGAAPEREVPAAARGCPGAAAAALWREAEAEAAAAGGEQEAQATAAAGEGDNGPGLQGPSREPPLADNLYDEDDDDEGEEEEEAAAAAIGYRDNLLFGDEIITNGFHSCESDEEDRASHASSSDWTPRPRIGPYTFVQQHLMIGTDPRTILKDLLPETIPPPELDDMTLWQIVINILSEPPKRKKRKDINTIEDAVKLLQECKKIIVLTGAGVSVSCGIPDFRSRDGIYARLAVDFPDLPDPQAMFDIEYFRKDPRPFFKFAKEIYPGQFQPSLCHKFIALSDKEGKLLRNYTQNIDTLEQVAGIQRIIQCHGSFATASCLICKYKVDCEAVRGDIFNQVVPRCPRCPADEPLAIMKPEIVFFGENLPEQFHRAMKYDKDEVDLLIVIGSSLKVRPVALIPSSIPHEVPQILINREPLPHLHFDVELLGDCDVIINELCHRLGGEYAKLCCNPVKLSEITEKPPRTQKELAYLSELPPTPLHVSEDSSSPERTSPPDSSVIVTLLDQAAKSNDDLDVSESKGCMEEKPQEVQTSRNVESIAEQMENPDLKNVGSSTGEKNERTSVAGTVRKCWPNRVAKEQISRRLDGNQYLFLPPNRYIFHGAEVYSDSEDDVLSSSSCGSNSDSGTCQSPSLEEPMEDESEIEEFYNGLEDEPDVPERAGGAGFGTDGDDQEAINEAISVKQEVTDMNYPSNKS
Assay: Trp mass spectrometry assay of SIRT1 activation (deacetylation of Ac-R-H-K-K(Ac)-W-NH2 peptide, OAADPR formation)
Assay type: biochemical
Conditions: Trp peptide 0.5 μM, 120 μM βNAD+, 10 nM SIRT1, 25 min, 25° C.; for Emax: 25 min, read-out: TRP MAX RESP (percent maximum fold activation relative to control = 100%)
Summary of the method: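 10 nM His-tagged SIRT1 (E. coli expressed) with 0.5 μM Ac-RHKK(Ac)W-NH2 and 120 μM βNAD+, 25 min at 25° C, HEPES pH 7.5, […]; formic acid stop. OAADPR or deacetylated peptide measured by mass spectrometry; EC1.5 = concentration giving 150% activity versus DMSO control; maximum activation also reported.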

Row | Compound | Emax [%] | TRP Activity (EC1.5, concentration of compound required to increase SIRT1 activity by 50% over control) | TRP Activity (EC1.5, concentration of compound required to increase SIRT1 activity by 50% over control) (hydrochloride) | TRP MAX RESP (percent maximum fold activation relative to control = 100%)
1 | O=C(Nc1cncnc1)N1c2nc(-c3cncc(C(F)(F)F)c3)ccc2N2CCC[C@H]1C2 [Example 3, (9S)-N-(pyrimidin-5-yl)-2-(5-(trifluoromethyl)pyridin-3-yl)-8,9-dihydro-6H-5,9-methanopyrido[2,3-b][1,4]diazocine-10(7H)-carboxamide] | ≥ 150 | A (EC1.5<1 μM) | – | –
2 | Cc1ccc2c(NC(=O)N3c4nc(C(=O)NC5CC5(F)F)ccc4N4CCC[C@H]3C4)n[nH]c2n1 (single isomer, unassigned) [Example 53] | – | A (EC1.5<1 μM) | – | –
3 | O=C(Nc1ccnc(OC[C@H](O)CO)c1)N1c2nc(-c3cccc(C(F)(F)F)c3)c(Cl)cc2N2CCC[C@H]1C2 [Example 85, (9S)-3-chloro-N-(2-((R)-2,3-dihydroxypropoxy)pyridin-4-yl)-2-(3-(trifluoromethyl)phenyl)-8,9-dihydro-6H-5,9-methanopyrido[2,3-b][1,4]diazocine-10(7H)-carboxamide] | ≥ 150 | A (EC1.5<1 μM) | – | –
4 | O=C(Nc1cnc(OC[C@H](O)CO)cn1)N1c2nc(-c3cccc(C(F)(F)F)c3)c(Cl)cc2N2CCC[C@H]1C2 [Example 73, (9S)-3-chloro-N-(5-((R)-2,3-dihydroxypropoxy)pyrazin-2-yl)-2-(3-(trifluoromethyl)phenyl)-8,9-dihydro-6H-5,9-methanopyrido[2,3-b][1,4]diazocine-10(7H)-carboxamide] | ≥ 150 | A (EC1.5<1 μM) | – | –
5 | O=C(Nc1ccc(OC[C@H](O)CO)cn1)N1c2nc(-c3cccc(C(F)(F)F)c3)c(Cl)cc2N2CCC[C@H]1C2 [Example 87, (9S)-3-chloro-N-(5-((R)-2,3-dihydroxypropoxy)pyridin-2-yl)-2-(3-(trifluoromethyl)phenyl)-8,9-dihydro-6H-5,9-methanopyrido[2,3-b][1,4]diazocine-10(7H)-carboxamide] | ≥ 150 | A (EC1.5<1 μM) | – | –
6 | O=C(Nc1ncccn1)N1c2nc(N3CCCC(C(F)(F)F)C3)ccc2N2CCC[C@H]1C2 (single isomer, unassigned) [Example 22] | – | A (EC1.5<1 μM) | – | –
7 | Cc1cc(-c2cc(C)c3c(n2)N(C(=O)Nc2cccnc2)[C@H]2CCCN3C2)ccn1 [Example 90, (9S)-4-methyl-2-(2-methylpyridin-4-yl)-N-(pyridin-3-yl)-8,9-dihydro-6H-5,9-methanopyrido[2,3-b][1,4]diazocine-10(7H)-carboxamide] | ≥ 150 | A (EC1.5<1 μM) | – | –
8 | O=C(Nc1ccc(OC[C@@H](O)CO)nc1)N1c2nc(-c3cccc(C(F)(F)F)c3)c(Cl)cc2N2CCC[C@H]1C2 [Example 84, (9S)-3-chloro-N-(6-((S)-2,3-dihydroxypropoxy)pyridin-3-yl)-2-(3-(trifluoromethyl)phenyl)-8,9-dihydro-6H-5,9-methanopyrido[2,3-b][1,4]diazocine-10(7H)-carboxamide] | ≥ 150 | A (EC1.5<1 μM) | – | –
9 | O=C(Nc1cnc(OC[C@H](O)CO)nc1)N1c2nc(-c3cccc(C(F)(F)F)c3)c(Cl)cc2N2CCC[C@H]1C2 [Example 69, (9S)-3-chloro-N-(2-((R)-2,3-dihydroxypropoxy)pyrimidin-5-yl)-2-(3-(trifluoromethyl)phenyl)-8,9-dihydro-6H-5,9-methanopyrido[2,3-b][1,4]diazocine-10(7H)-carboxamide] | ≥ 150 | A (EC1.5<1 μM) | – | –
10 | O=C(Nc1cnc(OC[C@@H](O)CO)nc1)N1c2nc(-c3cccc(C(F)(F)F)c3)c(Cl)cc2N2CCC[C@H]1C2 [Example 72, (9S)-3-chloro-N-(2-((S)-2,3-dihydroxypropoxy)pyrimidin-5-yl)-2-(3-(trifluoromethyl)phenyl)-8,9-dihydro-6H-5,9-methanopyrido[2,3-b][1,4]diazocine-10(7H)-carboxamide] | ≥ 150 | A (EC1.5<1 μM) | – | –

Now from value to compound:

Row | Emax [%] | TRP Activity (EC1.5, concentration of compound required to increase SIRT1 activity by 50% over control) | TRP Activity (EC1.5, concentration of compound required to increase SIRT1 activity by 50% over control) (hydrochloride) | TRP MAX RESP (percent maximum fold activation relative to control = 100%) | Compound
11 | ≥ 150 | A (EC1.5<1 μM) | – | – | C[C@@H](NC(=O)c1ccc2c(n1)N(C(=O)Nc1ccon1)[C@H]1CCCN2C1)C(F)(F)F [Example 40, (9S)-N10-(isoxazol-3-yl)-N2-((R)-1,1,1-trifluoropropan-2-yl)-8,9-dihydro-6H-5,9-methanopyrido[2,3-b][1,4]diazocine-2,10(7H)-dicarboxamide]
12 | ≥ 150 | A (EC1.5<1 μM) | – | – | Cc1ccc2c(NC(=O)N3c4nc(C(=O)NC5CC5)ccc4N4CCC[C@H]3C4)n[nH]c2n1 [Example 42, (9S)-N2-cyclopropyl-N10-(6-methyl-1H-pyrazolo[3,4-b]pyridin-3-yl)-8,9-dihydro-6H-5,9-methanopyrido[2,3-b][1,4]diazocine-2,10(7H)-dicarboxamide]
13 | ≥ 150 | A (EC1.5<1 μM) | – | – | O=C(Nc1cncc(F)c1)N1c2nc(-c3ccnc(C(F)(F)F)c3)ccc2N2CCC[C@H]1C2 [Example 2, (9S)-N-(5-fluoropyridin-3-yl)-2-(2-(trifluoromethyl)pyridin-4-yl)-8,9-dihydro-6H-5,9-methanopyrido[2,3-b][1,4]diazocine-10(7H)-carboxamide]
14 | ≥ 150 | A (EC1.5<1 μM) | – | – | C[C@@H](NC(=O)c1nc2c(cc1Cl)N1CCC[C@@H](C1)N2C(=O)Nc1ccccn1)C(F)(F)F [Example 39, (9S)-3-chloro-N10-(pyridin-2-yl)-N2-((R)-1,1,1-trifluoropropan-2-yl)-8,9-dihydro-6H-5,9-methanopyrido[2,3-b][1,4]diazocine-2,10(7H)-dicarboxamide]
15 | ≥ 150 | – | – | – | C[C@@H](NC(=O)c1ccc2c(n1)N(C(=O)Nc1ccc(OC[C@H](O)CO)nn1)[C@H]1CCCN2C1)C(F)(F)F [Example 55, (9S)-N10-(6-((R)-2,3-dihydroxypropoxy)pyridazin-3-yl)-N2-((R)-1,1,1-trifluoropropan-2-yl)-8,9-dihydro-6H-5,9-methanopyrido[2,3-b][1,4]diazocine-2,10(7H)-dicarboxamide]
16 | – | – | A (EC1.5<1 μM) | – | O=C(Nc1ccccn1)N1c2nc(N3CCC(C(F)(F)F)C3)ccc2N2CCC[C@H]1C2 (single isomer, unassigned) [Example 31, hydrochloride]
17 | – | A (EC1.5<1 μM) | – | A (Fold activation≥150%) | Cc1ccc2c(NC(=O)N3c4nc(C(=O)NC(CO)C(F)(F)F)ccc4N4CCC[C@H]3C4)n[nH]c2n1 (single isomer, unassigned) [Example 46]
18 | ≥ 150 | A (EC1.5<1 μM) | – | – | CC(F)(F)CNC(=O)c1ccc2c(n1)N(C(=O)Nc1cc(OC[C@H](O)CO)ccn1)[C@H]1CCCN2C1 [Example 35, (9S)-N2-(2,2-difluoropropyl)-N10-(4-((R)-2,3-dihydroxypropoxy)pyridin-2-yl)-8,9-dihydro-6H-5,9-methanopyrido[2,3-b][1,4]diazocine-2,10(7H)-dicarboxamide]
19 | ≥ 150 | A (EC1.5<1 μM) | – | – | O=C(Nc1cncnc1)N1c2nc(-c3ccnc(C(F)(F)F)c3)ccc2N2CCC[C@H]1C2 [Example 10, (9S)-N-(pyrimidin-5-yl)-2-(2-(trifluoromethyl)pyridin-4-yl)-8,9-dihydro-6H-5,9-methanopyrido[2,3-b][1,4]diazocine-10(7H)-carboxamide]
20 | ≥ 150 | A (EC1.5<1 μM) | – | – | O=C(NC1CC1(F)F)c1ccc2c(n1)N(C(=O)Nc1cc(OC[C@H](O)CO)ccn1)[C@H]1CCCN2C1 (single isomer, unassigned) [Example 50]
21 | ≥ 150 | A (EC1.5<1 μM) | – | – | Cc1ccc2c(NC(=O)N3c4nc(C(=O)NCC(F)(F)F)ccc4N4CCC[C@H]3C4)n[nH]c2n1 [Example 41, (9S)-N10-(6-methyl-1H-pyrazolo[3,4-b]pyridin-3-yl)-N2-(2,2,2-trifluoroethyl)-8,9-dihydro-6H-5,9-methanopyrido[2,3-b][1,4]diazocine-2,10(7H)-dicarboxamide]
